# US7335757B2, “Carbonyl reductase, gene encoding the same, and process for producing optically active alcohols using the same” (Mitsubishi Chemical Corporation, priority 2002, dated 2008)
# B1: carbonyl reductase: Carbonyl reductase purified from Ogataea minuta var. nonfermentans IFO 1473, amino acid sequence SEQ ID NO: 1, about 27,000 Da by SDS-PAGE (protein)
# chain: MAKTVYFIAGASRGIGLEVASQLSANPDNYVIASYRSEKSASGLLELAKKDNVDTIVLDIASQESIDAVPAQISKLTDGIDVALINAGIANAMCPILECSRESYTDHWTTNALGPIMLYQAIHKFMLQRETRKVFFTTSAGGSIQAKIPVPVSGYGMSKAALNYAVRKLADECYKDNFTIVLLHPGFVKTDMGQSAIQKMSNGNAELLAYIDSMTIDVPTSAGQIVGAIMTLDKQSSGRFINAADQFDMPF
# modifications: Ogataea minuta var nonfermentans
# Tested on: carbonyl reductase
# Assay: Temperature stability of the enzyme (residual 2,2,2-trifluoroacetophenone reducing activity)
# Assay type: biochemical, Ogataea minuta var. nonfermentans IFO 1473
# Details: 50° C. or more, 10 minutes, 20 mM phosphate buffer pH 7.0
row,Molecule,residual activity
1,B1,rapidly deactivated

# Same assay, conditions: 70° C., 10 minutes, 20 mM phosphate buffer pH 7.0
row,Molecule,residual activity
1,B1,lost the activity completely

# Same assay, conditions: up to 40° C., 10 minutes, 20 mM phosphate buffer pH 7.0
row,Molecule,residual activity [%]
1,B1,≥ 79

# Tested on: carbonyl reductase
# Assay: 2,2,2-trifluoroacetophenone reducing activity after treating the enzyme with various reagents
# Assay type: biochemical, Ogataea minuta var. nonfermentans IFO 1473
# Details: enzyme treated at 30° C. for 10 minutes
# Method: Further, the enzyme was treated in various reagents at 30° C. for 10 minutes and then 2,2,2-trifluoroacetophenone reducing activity was measured.
row,Molecule,activity of enzyme in the presence of reagent
1,[Cl][Pb][Cl] [lead chloride],considerably inhibited
2,O=[N+]([O-])[O-].[Hg+] [mercury nitrate],considerably inhibited

# Tested on: carbonyl reductase
# Assay: Reduction activity of the enzyme on various ketones and aldehyde (initial rate of NADPH decrease)
# Assay type: biochemical, Ogataea minuta var. nonfermentans IFO 1473
# Details: pH 7
row,Molecule,Specific activity (%)
1,"O=C(c1ccccc1)C(F)(F)F [2,2,2-Trifluoro-acetophenone]",100.0
2,O=C(CCl)c1ccccc1 [2-Chloro-acetophenone],19.6
3,O=C1CCCCC1Cl (centres unmarked) [2-Chloro-cyclohexanone],163.0
4,N#CCCc1ccccc1 [Benzylacetonitrile],25.9
5,CC(=O)C(C)=O [Diacetyl],12.3
6,CCC(=O)c1ccccc1 [Propiophenone],18.8
7,CC(=O)c1cccc(Cl)c1 [m-Chloro-acetophenone],30.7
8,CC(=O)c1ccc(Cl)cc1 [p-Chloro-acetophenone],10.2

# Same assay, conditions: relative to 2,2,2-trifluoroacetophenone defined as 100; NADPH, 0.1 M phosphate buffer pH 7.0
row,Molecule,Specific activity (%)
1,CC1(Cl)CCCCC1=O (centres unmarked) [2-Chloro-2-Methyl-cyclohexanone],105.4
2,CCOC(=O)CC(=O)c1ccccc1 [Ethyl benzoylacetate],10.9
3,CCOC(=O)C(=O)C(C)C [Ethyl-3-methyl-2-oxobutanoate],72.1
4,CC(=O)c1cccc(Br)c1 [m-Bromo-acetophenone],21.3
5,O=Cc1cccc(Cl)c1 [m-Chlorobenzaldehyde],14.3
6,O=Cc1cccc([N+](=O)[O-])c1 [m-Nitrobenzaldehyde],45.6
7,O=Cc1ccccc1Cl [o-Chlorobenzaldehyde],81.2
8,O=Cc1ccccc1[N+](=O)[O-] [o-Nitrobenzaldehyde],52.6
9,O=Cc1ccc(Cl)cc1 [p-Chlorobenzaldehyde],15.2
10,CC1(C)COC(=O)C1=O [α-Keto-pantolactone],26.3
